Biological target: PI3K delta (Homo sapiens (Human), UniProt O00329)
Assay: Luciferase-coupled chemiluminescence kinase assay (KinaseGlo, ATP consumption)
Format: biochemical
Experimental: Kinase activity and compound inhibition were investigated using one or more of the assay formats described below. The ATP concentrations used in the various assays were approximately equal to or less than the KM for each of the respective kinases. Dose-response experiments were performed using an intra-plate dilution scheme with 10 different inhibitor concentrations in a 384-well microtiter plate. […] Typically N should approximate unity. Curve fitting was performed using XLFit or ActivityBase. Luciferase-Coupled Chemiluminescence Assay Protocol
Kinase activity is measured as the percent of ATP consumed following the kinase reaction using luciferase-luciferin-coupled chemiluminescence. […] Kinase reactions were initiated by combining test compounds, kinase, and ATP in a 20 μL volume (6 μL volume for 1536-well plate). The reaction mixture was incubated at ambient temperature for 2 h. Following the kinase reaction, a 20 μL (or 3 μL for 1536-well plate) aliquot of KinaseGlo (Promega) was added and the chemiluminescence signal measured using an EnVision plate reader (Perkin Elmer).

PI3K delta, sequence (O00329 whole entry): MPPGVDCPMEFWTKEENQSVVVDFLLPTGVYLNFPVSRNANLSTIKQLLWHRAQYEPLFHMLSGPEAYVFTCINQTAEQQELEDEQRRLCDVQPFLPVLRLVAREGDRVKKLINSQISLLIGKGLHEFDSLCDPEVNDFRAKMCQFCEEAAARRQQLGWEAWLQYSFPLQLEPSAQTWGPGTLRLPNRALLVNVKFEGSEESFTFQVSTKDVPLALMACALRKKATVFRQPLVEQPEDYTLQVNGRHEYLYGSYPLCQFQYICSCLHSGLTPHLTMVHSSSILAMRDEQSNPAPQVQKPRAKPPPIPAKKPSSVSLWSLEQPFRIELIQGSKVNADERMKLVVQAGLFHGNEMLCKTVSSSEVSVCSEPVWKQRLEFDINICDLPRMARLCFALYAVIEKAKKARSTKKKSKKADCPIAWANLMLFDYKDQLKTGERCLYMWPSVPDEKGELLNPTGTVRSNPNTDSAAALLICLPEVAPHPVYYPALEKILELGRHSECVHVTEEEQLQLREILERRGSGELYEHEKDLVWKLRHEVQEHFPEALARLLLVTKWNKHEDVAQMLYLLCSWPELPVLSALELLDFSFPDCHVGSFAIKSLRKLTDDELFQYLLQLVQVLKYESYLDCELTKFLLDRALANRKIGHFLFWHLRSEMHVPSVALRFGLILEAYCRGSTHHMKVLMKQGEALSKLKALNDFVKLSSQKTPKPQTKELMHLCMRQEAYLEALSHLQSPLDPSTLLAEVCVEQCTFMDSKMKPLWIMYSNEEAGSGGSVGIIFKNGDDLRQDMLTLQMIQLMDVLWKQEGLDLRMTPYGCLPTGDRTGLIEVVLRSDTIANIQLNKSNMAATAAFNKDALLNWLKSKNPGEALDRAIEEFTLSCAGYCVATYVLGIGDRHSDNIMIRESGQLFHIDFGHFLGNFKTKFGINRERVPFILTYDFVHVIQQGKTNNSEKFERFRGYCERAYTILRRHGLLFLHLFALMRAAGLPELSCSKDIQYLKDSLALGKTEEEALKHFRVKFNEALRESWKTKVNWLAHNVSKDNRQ
PI3K delta, sequence (P27986 whole entry partner): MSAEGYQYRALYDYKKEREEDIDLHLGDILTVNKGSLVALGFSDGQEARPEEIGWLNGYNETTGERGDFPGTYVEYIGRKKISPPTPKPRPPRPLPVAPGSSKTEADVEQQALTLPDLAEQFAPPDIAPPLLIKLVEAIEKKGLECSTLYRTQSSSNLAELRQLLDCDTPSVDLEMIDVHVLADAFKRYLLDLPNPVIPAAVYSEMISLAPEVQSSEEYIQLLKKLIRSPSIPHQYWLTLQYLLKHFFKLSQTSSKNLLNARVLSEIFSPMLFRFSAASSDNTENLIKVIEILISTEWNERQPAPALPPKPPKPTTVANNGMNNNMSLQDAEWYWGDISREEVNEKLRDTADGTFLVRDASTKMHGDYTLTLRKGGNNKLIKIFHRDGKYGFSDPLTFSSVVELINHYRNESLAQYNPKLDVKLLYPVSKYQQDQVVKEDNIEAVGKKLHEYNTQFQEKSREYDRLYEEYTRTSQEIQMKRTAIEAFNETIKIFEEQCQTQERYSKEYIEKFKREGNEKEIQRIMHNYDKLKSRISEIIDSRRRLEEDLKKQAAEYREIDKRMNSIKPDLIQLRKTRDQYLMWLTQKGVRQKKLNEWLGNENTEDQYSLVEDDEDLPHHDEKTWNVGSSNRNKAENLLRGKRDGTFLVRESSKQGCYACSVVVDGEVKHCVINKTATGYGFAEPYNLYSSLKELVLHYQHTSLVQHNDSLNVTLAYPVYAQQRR

Q: For `Cc1cccc2cc(CNC(=O)c3nccnc3N)c(N3CC(C)NC[C@H]3C)nc12` (stereo in doubt) [Compound 123, 3-amino-N-({2-[(2R,5S)-2,5-dimethylpiperazin-1-yl]-8-methylquinolin-3-yl}methyl)pyrazine-2-carboxamide], which IC50 is on record?
A: 250 to 500 nM

Q: With `Cc1cccc2cc(CSc3ncnc4[nH]cnc34)c(N(C)CC3CCN(C)CC3)nc12` [Compound 1, N,8-dimethyl-N-[(1-methylpiperidin-4-yl)methyl]-3-[(9H-purin-6-ylthio)methyl]quinolin-2-amine] as the molecule, how does the IC50 read?
A: 50 to 250 nM

Q: `Cc1cccc2cc(Cn3cnc4c(N)ncnc43)c(N(C)CC3CCCN3C)nc12` (stereo not shown) [Compound 2, 3-[(6-amino-9H-purin-9-yl)methyl]-N,8-dimethyl-N-[(1-methylpyrrolidin-2-yl)methyl]quinolin-2-amine] was tested. Which IC50 did it give?
A: < 50 nM

Q: Which IC50 does the source give for `Cc1cccc2cc(Cn3cnc4c(N)ncnc43)c(N(C)CC3CCCCN3C)nc12` (stereo not shown) [Compound 3, 3-[(6-amino-9H-purin-9-yl)methyl]-N,8-dimethyl-N-[(1-methylpiperidin-2-yl)methyl]quinolin-2-amine] here?
A: < 50 nM

Q: Which IC50 does the source give for `Cc1cccc2cc(Cn3cnc4c(N)ncnc43)c(N(C)CC3CCN(C)CC3)nc12` [Compound 4, 3-[(6-amino-9H-purin-9-yl)methyl]-N,8-dimethyl-N-[(1-methylpiperidin-4-yl)methyl]quinolin-2-amine] here?
A: < 50 nM

Q: `Cc1cccc2cc(CNc3cccc4c3OCCO4)c(-c3ccccc3Cl)nc12` [Compound 5] was tested. Which IC50 did it give?
A: 500 to 1500 nM

Q: How did the IC50 turn out when `COc1cccc(CNCc2cc3cccc(C)c3nc2-c2ccccc2Cl)c1` [Compound 6, 1-[2-(2-chlorophenyl)-8-methylquinolin-3-yl]-N-{[3-(methyloxy)phenyl]methyl}methanamine] was run?
A: 500 to 1500 nM

Q: Which IC50 does the source give for `Cc1cccc2cc(COc3ccc4c(c3)OCO4)c(-c3ccccc3Cl)nc12` [Compound 8, 3-[(1,3-benzodioxol-5-yloxy)methyl]-2-(2-chlorophenyl)-8-methylquinoline] here?
A: 500 to 1500 nM

Q: How did the IC50 turn out when `COc1ccccc1NCc1cc2cccc(C)c2nc1-c1ccccc1Cl` [Compound 11, N-{[2-(2-chlorophenyl)-8-methylquinolin-3-yl]methyl}-2-(methyloxy)aniline] was run?
A: 500 to 1500 nM

Q: With `Cc1cccc2cc(CNc3ncnc4[nH]cnc34)c(N3CCN4CCCCC4C3)nc12` (stereo not shown) [Compound 12, N-{[8-methyl-2-(octahydro-2H-pyrido[1,2-a]pyrazin-2-yl)quinolin-3-yl]methyl}-9H-purin-6-amine] as the molecule, how does the IC50 read?
A: < 50 nM

Q: How did the IC50 turn out when `Cc1cccc2cc(Cn3cnc4c(N)ncnc43)c(N3CCc4ccccc4C3)nc12` [Compound 14, 9-{[2-(3,4-dihydroisoquinolin-2(1H)-yl)-8-methylquinolin-3-yl]methyl}-9H-purin-6-amine] was run?
A: 500 to 1500 nM

Q: Which IC50 does the source give for `COc1ccc(OCc2cc3cccc(C)c3nc2-c2ccccc2Cl)cc1` [Compound 16, 2-(2-chlorophenyl)-8-methyl-3-({[4-(methyloxy)phenyl]oxy}methyl)quinoline] here?
A: 500 to 1500 nM

Q: Which IC50 does the source give for `COc1ccc(OC(C)c2cc3cccc(C)c3nc2-c2ccccc2Cl)cc1` (stereo not shown) [Compound 17, 2-(2-chlorophenyl)-8-methyl-3-(1-{[4-(methyloxy)phenyl]oxy}ethyl)quinoline] here?
A: 500 to 1500 nM

Q: `Cc1cccc2cc(CNc3ncnc4[nH]cnc34)c(N3CCc4ccccc4C3)nc12` [Compound 19, N-{[2-(3,4-dihydroisoquinolin-2(1H)-yl)-8-methylquinolin-3-yl]methyl}-9H-purin-6-amine] was tested. Which IC50 did it give?
A: 500 to 1500 nM

Q: How did the IC50 turn out when `CNCCN(C)c1nc2c(C)cccc2cc1CNc1ccc(OC)cc1` [Compound 20, N,N′-dimethyl-N-[8-methyl-3-({[4-(methyloxy)phenyl]amino}methyl)quinolin-2-yl]ethane-1,2-diamine] was run?
A: 500 to 1500 nM

Q: `CNCCN(C)c1nc2c(C)cccc2cc1CN1CCOCC1` [Compound 21, N,N′-dimethyl-N-[8-methyl-3-(morpholin-4-ylmethyl)quinolin-2-yl]ethane-1,2-diamine] was tested. Which IC50 did it give?
A: 500 to 1500 nM

Q: For `CNCCN(C)c1nc2c(C)cccc2cc1COc1ccc(OC)cc1` [Compound 23, N,N′-dimethyl-N-[8-methyl-3-({[4-(methyloxy)phenyl]oxy}methyl)quinolin-2-yl]ethane-1,2-diamine], which IC50 is on record?
A: 500 to 1500 nM

Q: `COCCN(C)c1nc2c(C)cccc2cc1CNc1ncnc2[nH]cnc12` [Compound 25, N,8-dimethyl-N-[2-(methyloxy)ethyl]-3-[(9H-purin-6-ylamino)methyl]quinolin-2-amine] was tested. Which IC50 did it give?
A: < 50 nM

Q: For `CCCCN(C)c1nc2c(C)cccc2cc1CNc1ncnc2[nH]cnc12` [Compound 26, N-butyl-N,8-dimethyl-3-[(9H-purin-6-ylamino)methyl]quinolin-2-amine], which IC50 is on record?
A: 50 to 250 nM

Q: Which IC50 does the source give for `Cc1cccc2cc(CNc3ncnc4[nH]cnc34)c(N3CCCCC3)nc12` [Compound 27, N-[(8-methyl-2-piperidin-1-ylquinolin-3-yl)methyl]-9H-purin-6-amine] here?
A: 50 to 250 nM

Q: With `Cc1cccc2cc(Cn3cnc4c(N)ncnc43)c(N(C)CCN(C)C(=O)Cn3cccn3)nc12` [Compound 28, N-{2-[{3-[(6-amino-9H-purin-9-yl)methyl]-8-methylquinolin-2-yl}(methyl)amino]ethyl}-N-methyl-2-(1H-pyrazol-1-yl)acetamide] as the molecule, how does the IC50 read?
A: < 50 nM

Q: For `CNCCN(C)c1nc2c(C)cccc2cc1-c1nnc(-c2nccnc2N)o1` [Compound 29, N-{3-[5-(3-aminopyrazin-2-yl)-1,3,4-oxadiazol-2-yl]-8-methylquinolin-2-yl}-N,N′-dimethylethane-1,2-diamine], which IC50 is on record?
A: 500 to 1500 nM

Q: Which IC50 does the source give for `Cc1cccc2cc(CNC(=O)c3nccnc3N)c(N(C)CC3CCCN(C)C3)nc12` (stereo not shown) [Compound 30, 3-amino-N-[(8-methyl-2-{methyl[(1-methylpiperidin-3-yl)methyl]amino}quinolin-3-yl)methyl]pyrazine-2-carboxamide] here?
A: < 50 nM

Q: How did the IC50 turn out when `Cc1cccc2cc(CNC(=O)c3nccnc3N)c(N(C)CC3CCN(C)CC3)nc12` [Compound 31, 3-amino-N-[(8-methyl-2-{methyl[(1-methylpiperidin-4-yl)methyl]amino}quinolin-3-yl)methyl]pyrazine-2-carboxamide] was run?
A: < 50 nM

Q: Which IC50 does the source give for `Cc1cccc2cc(CNc3ncnc4[nH]cnc34)c(N(C)CC3CCCN(C)C3)nc12` (stereo not shown) [Compound 32, N,8-dimethyl-N-[(1-methylpiperidin-3-yl)methyl]-3-[(9H-purin-6-ylamino)methyl]quinolin-2-amine] here?
A: < 50 nM

Q: `Cc1cccc2cc(CNc3ncnc4[nH]cnc34)c(N(C)CC3CCN(C)CC3)nc12` [Compound 33, N,8-dimethyl-N-[(1-methylpiperidin-4-yl)methyl]-3-[(9H-purin-6-ylamino)methyl]quinolin-2-amine] was tested. Which IC50 did it give?
A: < 50 nM

Q: Which IC50 does the source give for `Cc1cccc2cc(Cn3cnc4c(N)ncnc43)c(N(C)CCN(C)C(=O)Cn3ccnn3)nc12` [Compound 34, N-{2-[{3-[(6-amino-9H-purin-9-yl)methyl]-8-methylquinolin-2-yl}(methyl)amino]ethyl}-N-methyl-2-(1H-1,2,3-triazol-1-yl)acetamide] here?
A: < 50 nM

Q: How did the IC50 turn out when `Cc1cccc2cc(CNc3ncnc4[nH]cnc34)c(N(C)CCN(C)C(=O)Cn3ccnn3)nc12` [Compound 35, N-methyl-N-[2-(methyl{8-methyl-3-[(9H-purin-6-ylamino)methyl]quinolin-2-yl}amino)ethyl]-2-(1H-1,2,3-triazol-1-yl)acetamide] was run?
A: < 50 nM

Q: `CNCCN(C)c1nc2c(C)cccc2cc1CNc1ncnc2[nH]cnc12` [Compound 36, N,N′-dimethyl-N-{8-methyl-3-[(9H-purin-6-ylamino)methyl]quinolin-2-yl}ethane-1,2-diamine] was tested. Which IC50 did it give?
A: < 50 nM

Q: Which IC50 does the source give for `Cc1cccc2cc(CNc3ncnc4[nH]cnc34)c(N3CCNCC3)nc12` [Compound 37, N-[(8-methyl-2-piperazin-1-ylquinolin-3-yl)methyl]-9H-purin-6-amine] here?
A: < 50 nM

Q: How did the IC50 turn out when `Cc1cccc2cc(CNc3ncnc4[nH]cnc34)c(N(C)CC3CCCCN3C)nc12` (stereo not shown) [Compound 38, N,8-dimethyl-N-[(1-methylpiperidin-2-yl)methyl]-3-[(9H-purin-6-ylamino)methyl]quinolin-2-amine] was run?
A: < 50 nM

Q: With `Cc1cccc2cc(CNC(=O)c3nccnc3N)c(N(C)CC3CCCCN3C)nc12` (stereo not shown) [Compound 39, 3-amino-N-[(8-methyl-2-{methyl[(1-methylpiperidin-2-yl)methyl]amino}quinolin-3-yl)methyl]pyrazine-2-carboxamide] as the molecule, how does the IC50 read?
A: < 50 nM

Q: For `CNCCN(C)c1nc2c(C)cccc2cc1CNC(=O)C1(C(=O)NC)CC1` [Compound 40, N-methyl-N′-[(8-methyl-2-{methyl[2-(methylamino)ethyl]amino}quinolin-3-yl)methyl]cyclopropane-1,1-dicarboxamide], which IC50 is on record?
A: 500 to 1500 nM

Q: Which IC50 does the source give for `CC(=O)N1CCN(c2nc3ccccc3nc2Nc2cccc(C(N)=O)c2)CC1` [Compound 41, 3-{[3-(4-acetylpiperazin-1-yl)quinoxalin-2-yl]amino}benzamide] here?
A: 500 to 1500 nM

Q: Which IC50 does the source give for `Cc1cccc2cc(CNC(=O)c3nccnc3N)c(N(C)CCN(C)C(=O)Cn3cnnn3)nc12` [Compound 42, 3-amino-N-{[8-methyl-2-(methyl{2-[methyl(1H-tetrazol-1-ylacetyl)amino]ethyl}amino)quinolin-3-yl]methyl}pyrazine-2-carboxamide] here?
A: < 50 nM

Q: `Cc1nc(C)n(CC(=O)N(C)CCN(C)c2nc3c(C)cccc3cc2CNC(=O)c2nccnc2N)n1` [Compound 43, 3-amino-N-({2-[(2-{[(3,5-dimethyl-1H-1,2,4-triazol-1-yl)acetyl](methyl)amino}ethyl)(methyl)amino]-8-methylquinolin-3-yl}methyl)pyrazine-2-carboxamide] was tested. Which IC50 did it give?
A: < 50 nM

Q: `Cc1cccc2cc(CNC(=O)c3nccnc3N)c(N3CCC(NCC(=O)N(C)C)C3)nc12` (stereo not shown) [Compound 44, 3-amino-N-{[2-(3-{[2-(dimethylamino)-2-oxoethyl]amino}pyrrolidin-1-yl)-8-methylquinolin-3-yl]methyl}pyrazine-2-carboxamide] was tested. Which IC50 did it give?
A: 500 to 1500 nM

Source: patent publication US9670212B2, “Inhibitors of PI3K-delta and methods of their use and manufacture” (Exelixis, Inc., priority 2010, dated 2017)
